Laboratory results reported in the NIST ThermoML archive (doi:10.1016/j.tca.2005.11.024).

How the values were obtained:
[1] = DTA
[2] = Molar enthalpy of transition or fusion; settings: DSC
[3] = molar heat capacity at constant pressure; settings: 101.33 kPa, Small sample (50 mg) DSC

O=S1(=O)CCCOC1 [1,3-oxathiane-3,3-dioxide]
Crystal
Settings | Molar enthalpy of transition or fusion [kJ/mol] | Normal melting temperature [°C]
[1] | – | 79.8
[2] | 15.2 | –

[3], Crystal
Settings | molar heat capacity at constant pressure [J/K/mol]
268.15 K | 133.2
270.15 K | 134.5
275.15 K | 136.5
280.15 K | 138.6
285.15 K | 140.6
290.15 K | 143.3
295.15 K | 146.3
298.15 K | 148.1
300.15 K | 149.6
305.15 K | 153.8
310.15 K | 158.6
315.15 K | 161.5
320.15 K | 164.8
325.15 K | 168.3
330.15 K | 171.7
335.15 K | 176.3

c1cscn1 [1,3-thiazole]
Settings | molar heat capacity at constant pressure [J/K/mol]
[3], 298.15 K, Liquid | 122.1

O=S1(=O)CCSCC1 [1,4-dithiane sulfone]
Crystal
Settings | Molar enthalpy of transition or fusion [kJ/mol] | Normal melting temperature [°C]
[1] | – | 201.1
[2] | 26 | –

[3], Crystal
Settings | molar heat capacity at constant pressure [J/K/mol]
268.15 K | 141
270.15 K | 141.7
275.15 K | 143.8
280.15 K | 145.9
285.15 K | 148.1
290.15 K | 149.8
295.15 K | 151.8
298.15 K | 152.7
300.15 K | 153.5
305.15 K | 155.6
310.15 K | 158.1
315.15 K | 160.5
320.15 K | 163
325.15 K | 165.5
330.15 K | 167.5
335.15 K | 168.9
340.15 K | 171
345.15 K | 173
350.15 K | 175.1
355.15 K | 177.4
360.15 K | 179.5
365.15 K | 181.6
370.15 K | 184.4
375.15 K | 186.2
380.15 K | 189.1
385.15 K | 191.2
390.15 K | 195.1
395.15 K | 199.6
400.15 K | 203.3
405.15 K | 205.7
410.15 K | 209.1
415.15 K | 212.2
420.15 K | 215.5
425.15 K | 218.8
430.15 K | 222.8
435.15 K | 226.2
440.15 K | 230.2
445.15 K | 234.7
450.15 K | 239.4
454.15 K | 243.2

O=S1(=O)CCOCC1 [1,4-oxathiane 4,4-dioxide]
Settings | Molar enthalpy of transition or fusion [kJ/mol] | Normal melting temperature [°C]
[1], Crystal 1 | – | 130.2
[2], Crystal 2 | 20.2 | –

[3], Crystal 2
Settings | molar heat capacity at constant pressure [J/K/mol]
268.15 K | 134.2
270.15 K | 135.4
275.15 K | 137.3
280.15 K | 139.3
285.15 K | 141.7
290.15 K | 144.2
295.15 K | 146.6
298.15 K | 147.9
300.15 K | 148.9
305.15 K | 151.2
310.15 K | 153.1
315.15 K | 155.3
320.15 K | 157.6
325.15 K | 159.9
330.15 K | 162
335.15 K | 164.1
340.15 K | 166.9
345.15 K | 170.3
350.15 K | 172.8
355.15 K | 175.5
360.15 K | 177.7
365.15 K | 180.1
370.15 K | 182.5
375.15 K | 185.6
380.15 K | 188.6
385.15 K | 191.5
390.15 K | 194.7

c1csc(-c2cccs2)c1 [2,2'-bithienyl]
Crystal
Settings | Molar enthalpy of transition or fusion [kJ/mol] | Normal melting temperature [°C]
[1] | – | 31.1
[2] | 16.5 | –

[3], Crystal
Settings | molar heat capacity at constant pressure [J/K/mol]
263.15 K | 175.4
265.15 K | 176.2
270.15 K | 178.3
275.15 K | 182.4
280.15 K | 185.6
285.15 K | 189.3
290.15 K | 192.9
291.15 K | 193.6
295.15 K | 198.5
298.15 K | 205.5
300.15 K | 218.1

O=C(O)c1ccc(C(=O)O)s1 [2,5-thiophenedicarboxylic acid]
[3], Crystal
Settings | molar heat capacity at constant pressure [J/K/mol]
277.15 K | 161.4
280.15 K | 162.7
285.15 K | 163.7
290.15 K | 164.7
295.15 K | 166.4
298.15 K | 167.1
300.15 K | 167.7
305.15 K | 169.5
310.15 K | 171
315.15 K | 173.1
320.15 K | 175.1
325.15 K | 177
330.15 K | 178.1
335.15 K | 179.7
340.15 K | 180.8
345.15 K | 182.3
350.15 K | 184
355.15 K | 186.1
360.15 K | 186.4
365.15 K | 190.1
370.15 K | 192.4
375.15 K | 194.2
380.15 K | 196.7
385.15 K | 198.7
390.15 K | 200.9
395.15 K | 203.3
400.15 K | 206.1
405.15 K | 209.6
410.15 K | 210.9
415.15 K | 213.7
420.15 K | 216.3
425.15 K | 219.4
430.15 K | 223.1
435.15 K | 225.5
440.15 K | 228.1
445.15 K | 229.8

CC(=O)c1cccs1 [2-acetylthiophene]
Settings | molar heat capacity at constant pressure [J/K/mol]
[3], 298.15 K, Liquid | 205.7

O=C(O)Cc1cccs1 [2-thiopheneacetic acid]
Crystal
Settings | Molar enthalpy of transition or fusion [kJ/mol] | Normal melting temperature [°C]
[1] | – | 64.2
[2] | 14 | –

[3], Crystal
Settings | molar heat capacity at constant pressure [J/K/mol]
268.15 K | 146.3
270.15 K | 147.2
275.15 K | 149.6
280.15 K | 150.9
285.15 K | 153.4
290.15 K | 155.2
295.15 K | 157.6
298.15 K | 159.2
300.15 K | 160.3
305.15 K | 163.9
310.15 K | 166.1
315.15 K | 168.5
320.15 K | 170.5
325.15 K | 173.6

CC(=O)c1ccsc1 [3-acetylthiophene]
Crystal
Settings | Molar enthalpy of transition or fusion [kJ/mol] | Normal melting temperature [°C]
[1] | – | 60.5
[2] | 18.9 | –

[3], Crystal
Settings | molar heat capacity at constant pressure [J/K/mol]
268.15 K | 134
270.15 K | 134.9
275.15 K | 136.7
280.15 K | 138.7
285.15 K | 140.3
290.15 K | 142.4
295.15 K | 145
298.15 K | 146.1
300.15 K | 147.5

O=C(O)Cc1ccsc1 [3-thiopheneacetic acid]
Crystal
Settings | Molar enthalpy of transition or fusion [kJ/mol] | Normal melting temperature [°C]
[1] | – | 80.2
[2] | 18.8 | –

[3], Crystal
Settings | molar heat capacity at constant pressure [J/K/mol]
268.15 K | 151.1
270.15 K | 152.6
275.15 K | 155.6
280.15 K | 158.5
285.15 K | 160.8
290.15 K | 163.6
295.15 K | 166.6
298.15 K | 168.4
300.15 K | 169.8
305.15 K | 172.7
310.15 K | 175.3
315.15 K | 178.8
320.15 K | 182.7
325.15 K | 186.8
330.15 K | 190.6
335.15 K | 193.9
340.15 K | 198.7

COC(=O)Cc1cccs1 [methyl 2-thiopheneacetate]
Settings | molar heat capacity at constant pressure [J/K/mol]
[3], 298.15 K, Liquid | 249.8

COC(=O)Cc1ccsc1 [methyl 3-thiopheneacetate]
Settings | molar heat capacity at constant pressure [J/K/mol]
[3], 298.15 K, Liquid | 250.6
